Earlier results, collected in patent US8658200B2, “Flavoring of drug-containing chewing gums” (McNeil-PPC, Inc., priority 2005, dated 2014).

Tested on: adult

Structure (SMILES): CN1CCCC1c1cccnc1 (stereo not shown) [nicotine, 3-(1-methyl-2-pyrrolidinyl)-pyridine]
- amount of nicotine able to kill an adult: Approximately 40 milligrams
